Where only a bound is given, the exact number is not on record here.

The target in one experiment is T1, Mitogen-activated protein kinase 1 (Homo sapiens, UniProt P28482). Briefly: Binding affinity to ERK2 (unknown origin) by surface plasmon resonance assay.
T1 sequence (P28482 whole entry): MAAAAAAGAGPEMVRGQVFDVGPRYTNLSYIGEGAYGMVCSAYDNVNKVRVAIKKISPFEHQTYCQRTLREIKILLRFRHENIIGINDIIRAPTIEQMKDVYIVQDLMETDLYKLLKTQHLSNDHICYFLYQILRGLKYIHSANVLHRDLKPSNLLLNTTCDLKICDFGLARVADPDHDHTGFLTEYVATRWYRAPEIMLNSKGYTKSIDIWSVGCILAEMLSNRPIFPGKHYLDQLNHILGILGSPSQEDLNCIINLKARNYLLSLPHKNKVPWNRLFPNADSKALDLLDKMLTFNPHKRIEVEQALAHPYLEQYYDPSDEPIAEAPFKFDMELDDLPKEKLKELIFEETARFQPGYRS
For orientation: Kd means the constant that tells how readily two partners part at equilibrium. `Brc1cnc2[nH]cc(I)c2n1` gave a Kd of 125 µM.

Take `c1cnc2[nH]ccc2n1`: the Kd worked out at 343 µM.

Compound `c1ccc(CNc2ncnc3nc[nH]c23)cc1` [6-BENZYLAMINOPURINE] showed a Kd of 247 µM.

The compound `Brc1cnc2[nH]ccc2n1` had a Kd of 319 µM.

`Brc1c[nH]c2nccnc12` had a Kd of 97 µM.

The next experiment addresses T1, Mitogen-activated protein kinase 1. Briefly: Inhibition of ERK2 (unknown origin) using 5FAM-IPTSPITTTYFFFKKK as substrate after 1 hr by LC3K assay.
The term IC50 denotes the midpoint of a concentration-inhibition curve. For the compound `OCCCn1cc(-c2c[nH]c3ncc(-c4ccncc4)nc23)cn1`, the midpoint of inhibition, the IC50, lay at 0.623 µM.

In turn, `Fc1cc(-c2cnc3[nH]ccc3n2)ccn1` gave an IC50 of 21.6 µM.

`c1cc(-c2cnc3[nH]cc(-c4ccn[nH]4)c3n2)ccn1`: the IC50 is 0.94 µM.

`c1ccc(-c2cnc3[nH]ccc3n2)cc1` yielded a 50% inhibitory concentration (IC50) of 50.1 µM.

`COc1ccc(-c2c[nH]c3ncc(-c4ccncc4)nc23)cn1` had an IC50 of 0.252 µM.

The compound `c1ncc(-c2c[nH]c3ncc(-c4cn[nH]c4)nc23)cn1` had an IC50 of 1.05 µM.

`CCn1cc(-c2c[nH]c3ncc(-c4ccncc4)nc23)cn1` had an IC50 of 0.149 µM.

`Fc1ccc(-c2cnc3[nH]ccc3n2)cc1` came in with an IC50 of 29.7 µM.

`c1cc2nc(-c3cn[nH]c3)cnc2[nH]1`: the midpoint of inhibition, the IC50, lay at 5.9 µM.

On to `CCCn1cc(-c2c[nH]c3ncc(-c4ccncc4)nc23)cn1`, for which the IC50 stood at 0.071 µM.

`c1cncc(-c2cnc3[nH]cc(-c4cccnc4)c3n2)c1` had a half-inhibitory concentration (IC50) of 0.407 µM.

As to `Cc1n[nH]c(C)c1-c1cnc2[nH]ccc2n1`, half-maximal inhibition (IC50) was put at 14 µM.

`NC(=O)c1ccc(-c2cnc3[nH]ccc3n2)cc1` had a half-maximal inhibitory concentration (IC50) of 44.1 µM.

For `NC(=O)c1cccc(-c2cnc3[nH]ccc3n2)c1`, the IC50 is greater than 200 µM.

Compound `c1cc(-c2cnc3[nH]cc(-c4cn[nH]c4)c3n2)ccn1` came in with an IC50 of 0.354 µM.

On to `Oc1ccc(-c2cnc3[nH]ccc3n2)cc1`, for which the IC50 turned out to be 12.4 µM.

For `c1cc(-c2cnc3[nH]ccc3n2)ccn1`, the 50% inhibitory concentration (IC50) was determined as 11.7 µM.

`Cn1cc(-c2cnc3[nH]ccc3n2)cn1` had an IC50 of 22.5 µM.

`c1cc(-c2cnc3[nH]cc(-c4cnn(CCN5CCOCC5)c4)c3n2)ccn1` showed an IC50 of 0.416 µM.

Take `c1cncc(-c2cnc3[nH]ccc3n2)c1`: it took 71.5 µM to reach half-maximal inhibition (IC50).

Consider `c1cncc(-c2c[nH]c3ncc(-c4cn[nH]c4)nc23)c1`, for which half-maximal inhibition (IC50) was put at 0.28 µM.

Compound `c1ccc(CCn2cc(-c3c[nH]c4ncc(-c5ccncc5)nc34)cn2)cc1` had an IC50 of 2 µM.

In turn, `Cc1n[nH]cc1-c1cnc2[nH]ccc2n1` displayed an IC50 of 22.2 µM.

Turning to `Cc1ccc(-c2c[nH]c3ncc(-c4ccncc4)nc23)cn1`, half-maximal inhibition (IC50) was put at 0.634 µM.

The compound `c1cc2nc(-c3ccc4cn[nH]c4c3)cnc2[nH]1` had an IC50 of 31.9 µM.

Turning to `Brc1cnc2[nH]ccc2n1`, the IC50 is greater than 200 µM.

In the case of `Clc1ccc(-c2c[nH]c3ncc(-c4ccncc4)nc23)cn1`, half-maximal inhibition (IC50) was put at 0.182 µM.

Regarding `Oc1cccc(-c2cnc3[nH]ccc3n2)c1`, the IC50 was greater than 200 µM.

Compound `c1cc(-c2cnc3[nH]cc(-c4cncnc4)c3n2)ccn1` displayed an IC50 of 2.2 µM.

Take `COc1ccc(-c2cnc3[nH]ccc3n2)cc1`: half-maximal inhibition (IC50) required 89.7 µM.

Consider `CC(C)Cn1cc(-c2c[nH]c3ncc(-c4ccncc4)nc23)cn1`, for which it took 0.091 µM to reach half-maximal inhibition (IC50).

On to `c1ccc(Cn2cc(-c3c[nH]c4ncc(-c5ccncc5)nc34)cn2)cc1`, for which the IC50 is 0.037 µM.

`Nc1ccc(-c2c[nH]c3ncc(-c4ccncc4)nc23)cn1` registered an IC50 of 0.468 µM.

The target is the same in a further experiment. Put plainly: Inhibition of human recombinant ERK2 expressed in Escherichia coli using Omnia peptide S/T17 as substrate measured every 50 seconds for 30 mins.
For the compound `Cn1cc(-c2c[nH]c3ncc(-c4ccncc4)nc23)cn1`, the IC50 came to 0.072 µM.

Source of the values: ChEMBL document CHEMBL3627630, “Fragment-based discovery of potent ERK2 pyrrolopyrazine inhibitors” (Bioorg Med Chem Lett, 2015).
